Laboratory results taken from PMC13366236 (Acta Pharmaceutica Sinica. B, 2025).
Several values for one entry are separate records, joined by “and”; a condition that tells them apart may be missing. Equal entries are not always repeated. Marks after values point to notes of the source that are not given here.

Legend:
PI3Kβ = PI3Kβ (Homo sapiens, UniProt P42338); test: biochemical
CYP 2C19 = CYP 2C19 (Homo sapiens, UniProt P33261); test: CYP enzyme inhibition; conditions: CYP 2C19 IC50
PI3Kγ = PI3Kγ (Homo sapiens, UniProt P48736); test: biochemical
CYP 2D6 = CYP 2D6 (Homo sapiens, UniProt P10635); test: CYP enzyme inhibition; conditions: CYP 2D6 IC50
MDA-MB-231 cells [1] = test: Cell viability CCK-8 assay; type: cell-based, human; conditions: for IC50: Homo sapiens, MDA-MB-231, 48 h, read-out: Antiproliferative IC50 ± SD
PI3Kα = PI3Kα (Homo sapiens, UniProt P42336); test: biochemical
CYP 1A2 = CYP 1A2 (Homo sapiens, UniProt P05177); test: CYP enzyme inhibition
mTOR [2] = molecular target: T1, mTOR (Homo sapiens, UniProt P42345); test: mTOR kinase inhibition, Lance Ultra assay; type: biochemical; conditions: for IC50: mTOR, IC50, mean ± SD of triplicate measurements
MCF-7 cells = test: Cell viability CCK-8 assay; type: cell-based; conditions: Homo sapiens, MCF7, 48 h, read-out: Antiproliferative IC50 ± SD
CYP 3A4 = CYP 3A4 (Homo sapiens, UniProt P08684); test: CYP enzyme inhibition; conditions: CYP 3A4 IC50
MDA-MB-436 cells = test: Cell viability CCK-8 assay; type: cell-based; conditions: Homo sapiens, MDA-MB-436, 48 h, read-out: Antiproliferative IC50 ± SD
CYP 2C9 = CYP 2C9 (Homo sapiens, UniProt P11712); test: CYP enzyme inhibition; conditions: CYP 2C9 IC50
HCT-116 cells = test: Cell viability CCK-8 assay; type: cell-based; conditions: Homo sapiens, HCT-116, 48 h, read-out: Antiproliferative IC50 ± SD
PI3Kδ = PI3Kδ (Homo sapiens, UniProt O00329); test: biochemical
[3] = Pharmacokinetic study in SD rats; type: in vivo
PI3KC2g(h) = PI3KC2g(h) (Homo sapiens, UniProt O75747); test: Kinase profiling; type: binding; conditions: 1.0 μmol/L
MDA-MB-231 cells [4] = test: Autophagy induction, Western blot and LC3B immunofluorescence; type: cell-based, human; conditions: MDA-MB-231, 0.5, 1, 2 μmol/L, 24 h
[5] = tested on: cGAS/STING signaling pathway; test: Western blot of cGAS/STING signaling pathway in MDA-MB-231 cells; type: cell-based, human; conditions: MDA-MB-231, 0.5‒2.0 μmol/L, 24 h
MDA-MB-231 cells [6] = test: Transwell invasion assay; type: cell-based, human; conditions: MDA-MB-231, concentration-dependent
MDA-MB-231 xenograft = MDA-MB-231 xenograft tumor model; type: in vivo, female BALB/c nude mice; conditions: i.v., Q3D × 6, Day 15; for Tumor size: mean ± SEM
MDA-MB-231 cells [7] = test: Wound healing; type: cell-based, human; conditions: MDA-MB-231, 0.25, 0.5, 1.0 μmol/L, concentration-dependent
mTOR [8] = molecular target: T1, mTOR; test: Cellular thermal shift assay; type: cell-based; conditions: MDA-MB-231 cells, 5 μmol/L, 8 h
[9] = tested on: PI3K/Akt/mTOR signaling pathway; test: Western blot of PI3K/Akt/mTOR signaling pathway in MDA-MB-231 cells; type: cell-based, human; conditions: MDA-MB-231, 0.5, 1, 2 μmol/L, 24 h
[10] = tested on: panel of 200 human kinases; test: Kinase-specificity profiling; type: binding; conditions: 1.0 μmol/L
MDA-MB-231 cells [11] = test: Colony formation assay; type: cell-based, human; conditions: MDA-MB-231, 0.05, 0.1, 0.5 μmol/L
MDA-MB-231 cells [12] = test: Apoptosis, Annexin V-AF647/7AAD flow cytometry; type: cell-based, human; conditions: 24 h
MDA-MB-468 cells = test: Cell viability CCK-8 assay; type: cell-based; conditions: Homo sapiens
[13] = Sprague-Dawley, rat, plasma, iv, 5 mg/kg
[14] = Sprague-Dawley, rat, plasma, po, 20 mg/kg

Sequence of CYP 2C19 (P33261 whole entry): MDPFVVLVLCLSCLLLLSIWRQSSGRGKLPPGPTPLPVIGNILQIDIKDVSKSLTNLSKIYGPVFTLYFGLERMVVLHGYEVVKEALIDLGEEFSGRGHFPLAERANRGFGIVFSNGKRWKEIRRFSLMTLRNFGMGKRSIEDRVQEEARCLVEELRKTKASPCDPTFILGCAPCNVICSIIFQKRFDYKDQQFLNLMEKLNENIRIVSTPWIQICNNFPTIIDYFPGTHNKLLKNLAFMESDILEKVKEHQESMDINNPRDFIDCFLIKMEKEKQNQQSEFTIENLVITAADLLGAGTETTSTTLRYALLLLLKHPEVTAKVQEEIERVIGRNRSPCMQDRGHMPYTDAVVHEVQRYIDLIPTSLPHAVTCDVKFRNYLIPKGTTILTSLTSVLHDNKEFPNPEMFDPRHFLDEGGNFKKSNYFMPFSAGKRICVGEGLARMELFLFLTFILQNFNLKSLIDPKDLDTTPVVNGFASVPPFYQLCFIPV
Sequence of CYP 3A4 (P08684 whole entry): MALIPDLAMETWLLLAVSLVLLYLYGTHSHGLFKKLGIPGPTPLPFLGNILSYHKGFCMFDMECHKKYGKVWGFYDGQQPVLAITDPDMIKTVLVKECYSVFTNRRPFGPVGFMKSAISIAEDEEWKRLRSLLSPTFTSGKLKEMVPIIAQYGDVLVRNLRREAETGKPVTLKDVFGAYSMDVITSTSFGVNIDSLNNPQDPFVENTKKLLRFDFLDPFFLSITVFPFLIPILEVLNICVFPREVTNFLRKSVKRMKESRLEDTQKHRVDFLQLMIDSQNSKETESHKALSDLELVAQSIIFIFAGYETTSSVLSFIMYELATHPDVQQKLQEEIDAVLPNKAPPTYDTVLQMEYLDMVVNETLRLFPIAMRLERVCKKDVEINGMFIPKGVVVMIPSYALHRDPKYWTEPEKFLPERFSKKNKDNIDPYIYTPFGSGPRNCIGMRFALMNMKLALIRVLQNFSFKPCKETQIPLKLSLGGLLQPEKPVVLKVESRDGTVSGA
Sequence of CYP 1A2 (P05177 whole entry): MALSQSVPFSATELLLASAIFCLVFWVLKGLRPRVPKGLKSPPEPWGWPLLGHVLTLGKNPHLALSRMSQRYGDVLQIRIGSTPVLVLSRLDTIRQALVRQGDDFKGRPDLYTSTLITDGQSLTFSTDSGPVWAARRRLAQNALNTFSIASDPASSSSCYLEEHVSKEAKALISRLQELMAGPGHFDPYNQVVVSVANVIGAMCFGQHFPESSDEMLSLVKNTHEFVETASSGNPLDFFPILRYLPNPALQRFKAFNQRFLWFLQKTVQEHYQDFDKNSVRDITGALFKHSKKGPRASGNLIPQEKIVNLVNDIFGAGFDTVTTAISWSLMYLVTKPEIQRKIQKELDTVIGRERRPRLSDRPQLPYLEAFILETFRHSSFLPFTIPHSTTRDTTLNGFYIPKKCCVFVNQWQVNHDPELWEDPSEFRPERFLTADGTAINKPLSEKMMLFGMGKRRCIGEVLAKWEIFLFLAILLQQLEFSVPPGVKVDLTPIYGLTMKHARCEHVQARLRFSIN
Sequence of CYP 2D6 (P10635 whole entry): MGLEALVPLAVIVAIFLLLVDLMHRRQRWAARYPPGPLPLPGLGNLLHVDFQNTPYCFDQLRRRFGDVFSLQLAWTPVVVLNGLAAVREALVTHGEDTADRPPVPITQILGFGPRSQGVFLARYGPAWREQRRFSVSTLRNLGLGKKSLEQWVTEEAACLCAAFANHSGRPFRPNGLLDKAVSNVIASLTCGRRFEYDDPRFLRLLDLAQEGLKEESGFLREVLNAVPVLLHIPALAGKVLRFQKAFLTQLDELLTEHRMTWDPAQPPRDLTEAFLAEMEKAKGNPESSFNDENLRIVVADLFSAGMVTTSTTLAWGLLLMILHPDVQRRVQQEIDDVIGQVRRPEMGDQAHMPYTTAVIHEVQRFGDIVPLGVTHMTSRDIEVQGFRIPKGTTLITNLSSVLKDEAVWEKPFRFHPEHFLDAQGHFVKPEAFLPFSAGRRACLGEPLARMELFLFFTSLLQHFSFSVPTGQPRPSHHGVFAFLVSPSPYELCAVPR
Sequence of PI3Kδ (O00329 whole entry): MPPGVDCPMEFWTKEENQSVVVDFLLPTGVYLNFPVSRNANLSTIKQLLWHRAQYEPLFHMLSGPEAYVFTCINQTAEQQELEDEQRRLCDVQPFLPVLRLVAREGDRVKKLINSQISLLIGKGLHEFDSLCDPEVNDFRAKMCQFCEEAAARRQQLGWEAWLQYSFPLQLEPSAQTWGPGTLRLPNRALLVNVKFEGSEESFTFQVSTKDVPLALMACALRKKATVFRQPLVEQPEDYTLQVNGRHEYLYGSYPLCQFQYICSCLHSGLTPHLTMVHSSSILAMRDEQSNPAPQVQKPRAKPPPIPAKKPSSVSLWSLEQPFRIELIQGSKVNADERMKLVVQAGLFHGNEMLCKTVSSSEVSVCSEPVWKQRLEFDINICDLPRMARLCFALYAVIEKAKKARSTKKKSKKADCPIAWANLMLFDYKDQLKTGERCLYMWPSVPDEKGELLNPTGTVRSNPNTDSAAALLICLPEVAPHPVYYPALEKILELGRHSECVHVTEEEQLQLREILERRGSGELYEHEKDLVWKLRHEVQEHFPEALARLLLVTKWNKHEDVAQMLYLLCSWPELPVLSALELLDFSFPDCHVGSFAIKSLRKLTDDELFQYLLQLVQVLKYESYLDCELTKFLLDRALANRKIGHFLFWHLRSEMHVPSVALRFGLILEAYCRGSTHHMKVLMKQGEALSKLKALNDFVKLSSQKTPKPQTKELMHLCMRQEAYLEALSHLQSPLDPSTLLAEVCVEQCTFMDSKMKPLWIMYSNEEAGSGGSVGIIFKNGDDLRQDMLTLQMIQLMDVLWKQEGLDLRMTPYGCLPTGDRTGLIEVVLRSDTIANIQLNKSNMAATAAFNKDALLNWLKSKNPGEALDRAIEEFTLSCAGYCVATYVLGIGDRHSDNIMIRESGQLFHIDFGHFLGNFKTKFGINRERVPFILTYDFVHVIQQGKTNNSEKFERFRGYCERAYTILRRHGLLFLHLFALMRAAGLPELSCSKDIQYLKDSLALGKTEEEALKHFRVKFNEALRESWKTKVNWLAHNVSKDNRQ
Sequence of PI3Kδ (P27986 whole entry partner): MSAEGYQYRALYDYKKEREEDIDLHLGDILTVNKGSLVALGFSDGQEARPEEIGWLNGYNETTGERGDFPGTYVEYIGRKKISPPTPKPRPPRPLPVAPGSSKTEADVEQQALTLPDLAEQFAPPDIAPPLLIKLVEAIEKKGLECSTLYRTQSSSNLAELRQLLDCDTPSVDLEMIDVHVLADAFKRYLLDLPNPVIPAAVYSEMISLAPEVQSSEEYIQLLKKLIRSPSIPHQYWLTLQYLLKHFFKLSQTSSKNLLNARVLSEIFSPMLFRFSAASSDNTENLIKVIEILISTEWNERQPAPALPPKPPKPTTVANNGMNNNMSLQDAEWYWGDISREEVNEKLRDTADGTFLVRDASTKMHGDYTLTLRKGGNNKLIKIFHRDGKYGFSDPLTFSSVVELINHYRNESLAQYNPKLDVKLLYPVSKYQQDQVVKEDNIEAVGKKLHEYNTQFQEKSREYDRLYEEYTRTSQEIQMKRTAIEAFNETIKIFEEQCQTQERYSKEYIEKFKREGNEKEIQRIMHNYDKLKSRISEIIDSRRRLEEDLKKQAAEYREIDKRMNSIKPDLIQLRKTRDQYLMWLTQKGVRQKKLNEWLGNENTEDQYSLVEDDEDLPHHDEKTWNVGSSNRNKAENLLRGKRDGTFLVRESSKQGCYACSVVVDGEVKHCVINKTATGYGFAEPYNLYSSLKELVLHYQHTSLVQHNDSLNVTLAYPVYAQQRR
Sequence of PI3Kβ (P42338 whole entry): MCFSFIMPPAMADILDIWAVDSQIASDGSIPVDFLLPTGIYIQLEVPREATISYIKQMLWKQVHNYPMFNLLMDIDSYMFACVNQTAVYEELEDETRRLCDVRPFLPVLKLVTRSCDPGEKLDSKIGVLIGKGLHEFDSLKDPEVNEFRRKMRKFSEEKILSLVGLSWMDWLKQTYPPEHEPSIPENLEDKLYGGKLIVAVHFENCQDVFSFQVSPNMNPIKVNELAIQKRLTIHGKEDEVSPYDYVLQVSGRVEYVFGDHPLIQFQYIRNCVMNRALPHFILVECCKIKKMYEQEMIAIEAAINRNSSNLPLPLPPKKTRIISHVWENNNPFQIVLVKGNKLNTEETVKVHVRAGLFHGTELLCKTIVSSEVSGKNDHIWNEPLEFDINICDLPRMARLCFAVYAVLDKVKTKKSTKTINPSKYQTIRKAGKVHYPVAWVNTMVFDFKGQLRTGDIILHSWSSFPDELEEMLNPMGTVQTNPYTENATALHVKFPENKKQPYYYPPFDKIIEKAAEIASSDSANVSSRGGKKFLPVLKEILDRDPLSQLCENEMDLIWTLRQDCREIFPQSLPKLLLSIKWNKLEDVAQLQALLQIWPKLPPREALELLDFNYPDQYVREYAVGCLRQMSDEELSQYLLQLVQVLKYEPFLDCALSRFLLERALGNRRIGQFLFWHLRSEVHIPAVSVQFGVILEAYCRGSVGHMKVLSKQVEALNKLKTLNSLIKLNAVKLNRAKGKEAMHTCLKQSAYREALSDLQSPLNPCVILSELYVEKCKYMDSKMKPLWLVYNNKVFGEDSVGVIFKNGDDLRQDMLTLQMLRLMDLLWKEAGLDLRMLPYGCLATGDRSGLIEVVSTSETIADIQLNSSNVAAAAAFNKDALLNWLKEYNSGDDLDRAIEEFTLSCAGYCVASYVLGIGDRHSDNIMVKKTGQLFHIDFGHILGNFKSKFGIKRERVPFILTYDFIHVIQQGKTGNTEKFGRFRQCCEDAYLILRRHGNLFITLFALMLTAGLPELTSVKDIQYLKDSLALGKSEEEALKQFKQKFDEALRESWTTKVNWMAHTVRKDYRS
Sequence of PI3Kβ (P27986 whole entry partner): as the sequence (P27986 whole entry partner) above

## NCCC(=O)Nc1ccccc1/N=c1\cc(-c2ccc3nc(N)oc3c2)oc2ccccc12 [Compound 12a, (E)-3-amino-N-(2-((2-(2-aminobenzo[d]oxazol-6-yl)-4H-chromen-4-ylidene)amino)phenyl)propanamide]
PI3Kβ
  IC50: > 10000 nM
CYP 2C19
  IC50: 680 nM
PI3Kγ
  IC50: > 10000 nM
CYP 2D6
  IC50: 5520 nM
MDA-MB-231 cells [1]
  IC50: 337 ± 12.8 nM
PI3Kα
  IC50: > 10000 nM
CYP 1A2
  IC50: > 50000 nM
mTOR [2]
  IC50: 45.2 ± 8.8 nM
mTOR [2]; vs MT-1
  fold more potent than the lead compound MT-1 (mTOR IC50): 34 fold
MCF-7 cells
  IC50: 118 ± 63.6 nM
CYP 3A4
  IC50: 7860 nM
MDA-MB-436 cells
  IC50: 498 ± 18.1 nM
CYP 2C9
  IC50: 140 nM
HCT-116 cells
  IC50: 1510 ± 361 nM
PI3Kδ
  IC50: > 10000 nM

## COc1ccc2oc(-c3ccc4nc(N)oc4c3)c/c(=N\c3ccccc3NC(=O)CCN)c2c1 [Compound 12j, (E)-3-amino-N-(2-((2-(2-aminobenzo[d]oxazol-6-yl)-6-methoxy-4H-chromen-4-ylidene)amino)phenyl)propanamide]
[3]; SD rats, i.g. 20 mg/kg
  Cl: 0.75 ± 0.07 mL/min/kg
  Vss: 15.04 ± 4.24 L/kg
[3]; [13]
  AUC(0-inf): 29900 ng·h/mL
  AUC(0-t): 28800 ng·h/mL
  Cmax: 29200 ng/mL
  MRT last: 2.93 ± 0.16 h
  Tmax: 0.05 h
  Vd: 4.43 ± 0.93 L/kg
  clearance: 2.83 mL/min/kg
  half-life: 14.1 ± 3.35 h
[3]; Sprague-Dawley, rat, plasma, oral, 20 mg/kg
  bioavailability: 4.75%
[3]; [14]
  AUC(0-inf): 5680 ± 501 ng·h/mL
  AUC(0-t): 5300 ± 514 ng·h/mL
  Cmax: 1150 ± 174 ng/mL
  MRT last: 5.44 ± 0.2 h
  Tmax: 1.4 ± 0.55 h
  half-life: 14 ± 4.11 h
PI3KC2g(h)
  binding to PI3KC2γ: weak binding
MDA-MB-231 cells [4]
  autophagy induction: significantly enhanced autophagy induction
PI3Kβ
  IC50: > 10000 nM
CYP 2C19
  IC50: > 50000 nM
[5]
  phosphorylation of STING(Ser366), TBK(Ser172), IRF3(Ser366): concentration-dependent increase
MDA-MB-231 cells [6]
  invasion: significantly inhibit the invasion
PI3Kγ
  IC50: > 10000 nM
CYP 2D6
  IC50: 19900 nM
MDA-MB-231 cells [1]
  IC50: 66.5 ± 1.5 nM
MDA-MB-231 cells [1]; MDA-MB-231
  fold more potent antiproliferative effect than Doxorubicin: 1.1 fold
  fold more potent antiproliferative effect than Everolimus: 34.4 fold
MDA-MB-231 xenograft; 10 mg/kg
  T/C: 61.36%
  Tumor size: 210.95 ± 33.18 mm^3
MDA-MB-231 xenograft; 10 mg/kg, listed as MT-44
  TGI: 38.64% and 38.64 ^d %
MDA-MB-231 xenograft; 20 mg/kg
  T/C: 27.27%
  Tumor size: 115.97 ± 20.63 mm^3
MDA-MB-231 xenograft; 20 mg/kg, listed as MT-44
  TGI: 72.73% and 72.73 ^e %
PI3Kα
  IC50: > 10000 nM
CYP 1A2
  IC50: > 50000 nM
MDA-MB-231 cells [7]
  anti-migration effect: significantly inhibit the migration
mTOR [2]
  IC50: 49.4 ± 17.1 nM
MCF-7 cells
  IC50: 328 ± 5.4 nM
CYP 3A4
  IC50: > 50000 nM
MDA-MB-436 cells
  IC50: 148 ± 1.7 nM
CYP 2C9
  IC50: > 50000 nM
mTOR [8]
  target engagement of mTOR in CETSA: directly interacts with mTOR protein
HCT-116 cells
  IC50: 555 ± 315 nM
[9]
  expression of p-P70S6K(Thr389), p-Akt(Ser473), p-4EBP1(Thr37/46): significantly downregulated in a concentration-dependent manner
[10]
  binding activity to the panel of kinases: no obvious binding activity
MDA-MB-231 cells [11]
  colony formation ability: significantly inhibited
MDA-MB-231 cells [12]; MDA-MB-231, 0.5 μmol/L
  percentage of total apoptotic cells: 4.73%
MDA-MB-231 cells [12]; MDA-MB-231, 1 μmol/L
  percentage of total apoptotic cells: 9.43%
MDA-MB-231 cells [12]; MDA-MB-231, 2 μmol/L
  percentage of total apoptotic cells: 22.23%
MDA-MB-468 cells; MDA-MB-468, read-out: Antiproliferative IC50
  IC50: 148 nM
MDA-MB-468 cells; MDA-MB-468, read-out: Inhibition rate @ 1.0 μmol/L
  inhibition at 1 µM: 74%
PI3Kδ
  IC50: > 10000 nM

## NCCC(=O)Nc1ccccc1/N=c1\cc(-c2ccc3nc(N)oc3c2)oc2ccc(F)cc12 [Compound 12k, (E)-3-amino-N-(2-((2-(2-aminobenzo[d]oxazol-6-yl)-6-fluoro-4H-chromen-4-ylidene)amino)phenyl)propanamide]
MDA-MB-231 cells [1]
  IC50: 125 ± 5.9 nM
mTOR [2]
  IC50: 166 ± 6.3 nM
MCF-7 cells
  IC50: 211 ± 87.7 nM
MDA-MB-436 cells
  IC50: 112 ± 62.3 nM
HCT-116 cells
  IC50: 307.9 ± 2.2 nM

## NCCC(=O)Nc1ccccc1/N=c1\cc(-c2ccc3nc(N)oc3c2)oc2cc(O)ccc12 [Compound 12m, (E)-3-amino-N-(2-((2-(2-aminobenzo[d]oxazol-6-yl)-7-hydroxy-4H-chromen-4-ylidene)amino)phenyl)propanamide]
MDA-MB-231 cells [1]
  IC50: > 10000 nM
mTOR [2]
  IC50: 40.2 ± 1 nM
MCF-7 cells
  IC50: > 10000 nM
MDA-MB-436 cells
  IC50: > 10000 nM
HCT-116 cells
  IC50: > 10000 nM

## Oc1cccc(-c2nc(N3CCOCC3)c3oc4ncccc4c3n2)c1 [PI-103, reference compound]
MDA-MB-231 cells [1]
  IC50: > 10000 nM
MDA-MB-231 xenograft; 20 mg/kg
  T/C: 61.36%
  TGI: 38.64 ^d %
  Tumor size: 256.59 ± 40.06 mm^3
MDA-MB-231 cells [7]
  anti-migration effect: significantly inhibit the migration
MCF-7 cells
  IC50: 2790 ± 346 nM
MDA-MB-436 cells
  IC50: > 10000 nM
HCT-116 cells
  IC50: > 10000 nM
MDA-MB-231 cells [11]
  colony formation ability: significantly inhibited
MDA-MB-231 cells [12]; MDA-MB-231, 2 μmol/L
  percentage of total apoptotic cells: 4.47%
